The values below come from ChEMBL document CHEMBL1138246, “Ester prodrugs of cyclic 1-(S)-[3-hydroxy-2-(phosphonomethoxy)propyl]-5-azacytosine: synthesis and antiviral activity” (J Med Chem, 2007).

Structures are written as SMILES. Values after ≈ are worked out from the molar mass of the structure shown.

This test concerns Vaccinia virus. The format is functional, organism-based. The following applies: Orthopoxvirus vaccinia, Lederle, HEL.
As a reminder, the EC50 is the concentration giving half of the maximal effect. `Nc1ncn(C[C@@H](CO)OCP(=O)(O)O)c(=O)n1` gave an EC50 of 2.16 µg/mL (≈ 7.71 µM). With `Nc1ncn(C[C@H]2COP(=O)(O)CO2)c(=O)n1` the figure was 2.12 µg/mL (≈ 8.09 µM); with `Nc1ccn(C[C@H]2COP(=O)(O)CO2)c(=O)n1` [CYCLIC CIDOFOVIR], 2.78 µg/mL (≈ 10.6 µM). With `CC(C)(C)C(=O)OCOP1(=O)CO[C@@H](Cn2cnc(N)nc2=O)CO1` (some centres not stated) the figure was 0.79 µg/mL (≈ 2.1 µM). With `CCCCCCCCCCCCCCCCOCCOP1(=O)CO[C@@H](Cn2cnc(N)nc2=O)CO1` (some centres not stated) the figure was 0.037 µg/mL (≈ 0.0697 µM); with `Nc1ccn(C[C@@H](CO)OCP(=O)(O)O)c(=O)n1.O.O` [CIDOFOVIR], 3.09 µg/mL. `CCCCCCCCCCCCCCCCCCOP1(=O)CO[C@@H](Cn2cnc(N)nc2=O)CO1` (some centres not stated) displayed an EC50 of 4.45 µg/mL (≈ 8.65 µM).
